Reference: patent publication US12370157B2, “Method for the treatment of COVID-19 infections with palmitoylethanolamide” (Epitech Group S.p.A., priority 2021, dated 2025)

Test: Plasma levels of the two forms of PEA
Details: in vivo

CCCCCCCCCCCCCCCC(=O)NCCO [PEA-um, palmitoylethanolamide]
Plasma levels, PEA-um compared with PEA-m: substantially the same
